Here are results for 8 compounds from patent US7074789B2, “Kinase inhibitors” (Amgen Inc., priority 1999, dated 2006).

Assay type in all cases: biochemical
The target of assay [1] is T1, Lck (Homo sapiens, UniProt P06239).
T1 construct: Kinases are expressed as either kinase domains or full length constructs; made in house
As to the kind of experiment: Kinase inhibition assay (33P transfer), Lck. Particulars: read-out: Lck-1. The method in brief:
(§1)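 Kinase domains or full-length kinases, GST- or His-tagged and expressed in E. coli or baculovirus/High Five cells, transferred 33PO4 from ATP onto plate-bound poly(Glu,Tyr) 4:1 or poly(Arg,Ser) 3:1. After incubation, plates were washed with 0.5% phosphoric acid and counted by liquid scintillation.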

Assay [2] has as its target T2, Zap-70 (Homo sapiens, UniProt P43403).
T2 construct: Kinases are expressed as either kinase domains or full length constructs; made in house
T2 sequence (P43403 1-619): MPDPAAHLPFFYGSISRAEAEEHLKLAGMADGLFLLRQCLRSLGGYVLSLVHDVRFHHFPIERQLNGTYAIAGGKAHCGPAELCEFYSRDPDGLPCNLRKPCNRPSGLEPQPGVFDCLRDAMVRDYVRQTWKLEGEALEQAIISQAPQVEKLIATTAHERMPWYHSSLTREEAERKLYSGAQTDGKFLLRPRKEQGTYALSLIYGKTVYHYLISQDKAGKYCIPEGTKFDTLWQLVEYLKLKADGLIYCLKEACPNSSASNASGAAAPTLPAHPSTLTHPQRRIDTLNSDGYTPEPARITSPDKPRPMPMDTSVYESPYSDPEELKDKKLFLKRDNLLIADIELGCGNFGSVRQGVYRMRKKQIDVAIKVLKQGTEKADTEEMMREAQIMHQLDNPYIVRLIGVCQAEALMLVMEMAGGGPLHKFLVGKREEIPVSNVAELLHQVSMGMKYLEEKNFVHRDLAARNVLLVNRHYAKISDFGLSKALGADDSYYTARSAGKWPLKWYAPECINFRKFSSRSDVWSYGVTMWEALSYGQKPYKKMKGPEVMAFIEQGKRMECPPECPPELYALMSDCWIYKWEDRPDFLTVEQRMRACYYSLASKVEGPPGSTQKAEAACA
Description: Kinase inhibition assay (33P transfer), Zap-70. Particulars: read-out: Zap-1. The method in brief: as §1

Assay [3] deals with T3, Itk (Homo sapiens, UniProt Q08881).
T3 construct: Kinases are expressed as either kinase domains or full length constructs; made in house
T3 sequence (Q08881 1-620): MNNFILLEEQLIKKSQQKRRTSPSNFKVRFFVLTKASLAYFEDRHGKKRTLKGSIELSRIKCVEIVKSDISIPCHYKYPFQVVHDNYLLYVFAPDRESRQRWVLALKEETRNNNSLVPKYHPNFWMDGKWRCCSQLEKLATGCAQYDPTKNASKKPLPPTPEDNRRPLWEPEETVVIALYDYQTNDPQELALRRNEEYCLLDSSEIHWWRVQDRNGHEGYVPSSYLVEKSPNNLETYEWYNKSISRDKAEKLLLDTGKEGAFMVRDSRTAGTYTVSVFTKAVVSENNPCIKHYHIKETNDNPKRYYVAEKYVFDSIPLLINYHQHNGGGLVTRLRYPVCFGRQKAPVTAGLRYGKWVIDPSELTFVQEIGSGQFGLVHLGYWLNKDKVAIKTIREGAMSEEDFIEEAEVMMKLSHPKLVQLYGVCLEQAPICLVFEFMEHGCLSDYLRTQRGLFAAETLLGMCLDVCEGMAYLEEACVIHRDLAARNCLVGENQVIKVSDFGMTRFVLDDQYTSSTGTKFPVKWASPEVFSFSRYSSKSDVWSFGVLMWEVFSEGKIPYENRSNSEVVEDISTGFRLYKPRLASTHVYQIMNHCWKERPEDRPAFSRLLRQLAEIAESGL
As to the kind of experiment: Kinase inhibition assay (33P transfer), Itk. Particulars: read-out: Itk-1. In short, it runs like this: (§2)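 Read-out: scintillation counts of 33P moved from ATP onto synthetic peptide polymer coated on the well surface, after washing with 0.5% phosphoric acid. Enzymes were tagged (GST or polyHistidine) and came from bacterial or insect-cell expression. IC50 marks 50% loss of incorporated label.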

Assay [4] has as its target T4, EGFR (Homo sapiens, UniProt P00533).
T4 construct: Kinases are expressed as either kinase domains or full length constructs; made in house
As to the kind of experiment: Kinase inhibition assay (33P transfer), EGFR. The settings on record: Table 2, kinase inhibition class; read-out: EGFR-1. In short, it runs like this:
as §2

The target in assay [5] is T5, ErbB2 (Homo sapiens, UniProt P04626).
T5 construct: Kinases are expressed as either kinase domains or full length constructs; made in house
As to the kind of experiment: Kinase inhibition assay (33P transfer), ErbB2. Particulars: read-out: ErbB2-2. In short, it runs like this:
as §2

The target of assay [6] is T6, Kdr (Homo sapiens, UniProt P35968).
T6 construct: Kinases are expressed as either kinase domains or full length constructs; made in house
As to the kind of experiment: Kinase inhibition assay (33P transfer), Kdr. The settings on record: read-out: KDR-1. In short, it runs like this: as §1

The target of assay [7] is T7, c-Met (Homo sapiens, UniProt P08581).
T7 construct: Kinases are expressed as either kinase domains or full length constructs; made in house
As to the kind of experiment: Kinase inhibition assay (33P transfer), c-Met. The settings on record: Table 2, kinase inhibition class; read-out: Met-1. The method in brief:
as §2

For assay [8], the target named is T8, AKT (Homo sapiens, UniProt Q9Y243).
T8 construct: Kinases are expressed as either kinase domains or full length constructs; made in house
Description: Kinase inhibition assay (33P transfer), AKT. The settings on record: Table 2, kinase inhibition class; read-out: AKT3-1. In short, it runs like this: as §1

Assay [9] has as its target T9, IGFR-1 (Homo sapiens, UniProt P08069).
T9 construct: Kinases are expressed as either kinase domains or full length constructs; made in house
Description: Kinase inhibition assay, IGFR-1 (Table 2). The settings on record: Table 2, kinase inhibition class.

Assay [10] concerns the target T10, PDGFRB (Homo sapiens, UniProt P09619).
T10 construct: Kinases are expressed as either kinase domains or full length constructs; made in house
As to the kind of experiment: Kinase inhibition assay (33P transfer), PDGFRB. The settings on record: read-out: PDGFRB-1.

T8 sequence (Q9Y243 whole entry, the tested form may be a part): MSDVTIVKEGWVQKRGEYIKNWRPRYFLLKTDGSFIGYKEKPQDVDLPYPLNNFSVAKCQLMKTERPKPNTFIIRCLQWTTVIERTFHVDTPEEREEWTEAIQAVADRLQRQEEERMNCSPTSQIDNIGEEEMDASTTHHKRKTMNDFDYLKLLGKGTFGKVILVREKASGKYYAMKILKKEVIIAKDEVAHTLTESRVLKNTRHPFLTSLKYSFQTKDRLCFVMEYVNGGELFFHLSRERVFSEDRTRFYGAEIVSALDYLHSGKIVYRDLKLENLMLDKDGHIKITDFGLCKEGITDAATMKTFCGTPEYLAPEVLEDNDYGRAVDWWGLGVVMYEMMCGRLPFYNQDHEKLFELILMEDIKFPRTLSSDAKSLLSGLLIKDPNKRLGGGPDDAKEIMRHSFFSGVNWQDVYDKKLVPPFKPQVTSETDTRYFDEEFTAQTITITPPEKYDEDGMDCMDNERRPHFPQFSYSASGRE
T7 sequence (P08581 25-1390): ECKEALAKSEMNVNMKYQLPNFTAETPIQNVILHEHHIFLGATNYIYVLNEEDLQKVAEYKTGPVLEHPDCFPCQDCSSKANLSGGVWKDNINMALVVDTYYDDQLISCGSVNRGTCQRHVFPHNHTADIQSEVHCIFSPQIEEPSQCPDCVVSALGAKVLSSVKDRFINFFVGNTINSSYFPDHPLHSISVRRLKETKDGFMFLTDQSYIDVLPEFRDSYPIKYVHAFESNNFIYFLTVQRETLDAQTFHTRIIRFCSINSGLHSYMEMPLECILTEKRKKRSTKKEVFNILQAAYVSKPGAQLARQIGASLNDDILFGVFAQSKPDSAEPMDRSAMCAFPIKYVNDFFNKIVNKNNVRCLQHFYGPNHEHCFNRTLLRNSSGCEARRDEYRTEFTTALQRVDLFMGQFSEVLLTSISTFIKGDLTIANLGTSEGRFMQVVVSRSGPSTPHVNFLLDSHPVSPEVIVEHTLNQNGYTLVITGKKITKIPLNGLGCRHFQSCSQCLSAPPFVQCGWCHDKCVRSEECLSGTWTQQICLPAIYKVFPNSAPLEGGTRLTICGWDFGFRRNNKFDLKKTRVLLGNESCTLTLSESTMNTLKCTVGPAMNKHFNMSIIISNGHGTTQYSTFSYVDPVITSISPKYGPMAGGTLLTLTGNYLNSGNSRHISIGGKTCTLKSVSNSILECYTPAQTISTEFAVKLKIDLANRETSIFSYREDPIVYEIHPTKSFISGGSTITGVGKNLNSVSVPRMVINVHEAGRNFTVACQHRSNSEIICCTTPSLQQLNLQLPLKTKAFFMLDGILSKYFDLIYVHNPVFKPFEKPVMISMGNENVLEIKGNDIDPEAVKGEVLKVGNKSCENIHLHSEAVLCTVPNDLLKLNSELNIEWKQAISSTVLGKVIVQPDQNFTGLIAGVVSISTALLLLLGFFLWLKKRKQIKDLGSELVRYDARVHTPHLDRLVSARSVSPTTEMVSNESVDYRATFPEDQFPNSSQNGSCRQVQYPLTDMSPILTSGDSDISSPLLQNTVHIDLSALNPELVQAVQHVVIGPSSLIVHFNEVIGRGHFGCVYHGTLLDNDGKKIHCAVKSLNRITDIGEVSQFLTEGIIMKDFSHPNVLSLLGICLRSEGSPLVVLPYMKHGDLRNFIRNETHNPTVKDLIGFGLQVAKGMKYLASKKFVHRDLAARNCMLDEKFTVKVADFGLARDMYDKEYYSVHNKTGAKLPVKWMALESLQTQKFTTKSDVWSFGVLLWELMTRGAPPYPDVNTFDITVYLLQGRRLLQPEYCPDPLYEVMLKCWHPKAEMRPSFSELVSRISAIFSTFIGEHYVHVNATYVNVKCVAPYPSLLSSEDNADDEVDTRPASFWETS
T6 sequence (P35968 20-1356, species assumed): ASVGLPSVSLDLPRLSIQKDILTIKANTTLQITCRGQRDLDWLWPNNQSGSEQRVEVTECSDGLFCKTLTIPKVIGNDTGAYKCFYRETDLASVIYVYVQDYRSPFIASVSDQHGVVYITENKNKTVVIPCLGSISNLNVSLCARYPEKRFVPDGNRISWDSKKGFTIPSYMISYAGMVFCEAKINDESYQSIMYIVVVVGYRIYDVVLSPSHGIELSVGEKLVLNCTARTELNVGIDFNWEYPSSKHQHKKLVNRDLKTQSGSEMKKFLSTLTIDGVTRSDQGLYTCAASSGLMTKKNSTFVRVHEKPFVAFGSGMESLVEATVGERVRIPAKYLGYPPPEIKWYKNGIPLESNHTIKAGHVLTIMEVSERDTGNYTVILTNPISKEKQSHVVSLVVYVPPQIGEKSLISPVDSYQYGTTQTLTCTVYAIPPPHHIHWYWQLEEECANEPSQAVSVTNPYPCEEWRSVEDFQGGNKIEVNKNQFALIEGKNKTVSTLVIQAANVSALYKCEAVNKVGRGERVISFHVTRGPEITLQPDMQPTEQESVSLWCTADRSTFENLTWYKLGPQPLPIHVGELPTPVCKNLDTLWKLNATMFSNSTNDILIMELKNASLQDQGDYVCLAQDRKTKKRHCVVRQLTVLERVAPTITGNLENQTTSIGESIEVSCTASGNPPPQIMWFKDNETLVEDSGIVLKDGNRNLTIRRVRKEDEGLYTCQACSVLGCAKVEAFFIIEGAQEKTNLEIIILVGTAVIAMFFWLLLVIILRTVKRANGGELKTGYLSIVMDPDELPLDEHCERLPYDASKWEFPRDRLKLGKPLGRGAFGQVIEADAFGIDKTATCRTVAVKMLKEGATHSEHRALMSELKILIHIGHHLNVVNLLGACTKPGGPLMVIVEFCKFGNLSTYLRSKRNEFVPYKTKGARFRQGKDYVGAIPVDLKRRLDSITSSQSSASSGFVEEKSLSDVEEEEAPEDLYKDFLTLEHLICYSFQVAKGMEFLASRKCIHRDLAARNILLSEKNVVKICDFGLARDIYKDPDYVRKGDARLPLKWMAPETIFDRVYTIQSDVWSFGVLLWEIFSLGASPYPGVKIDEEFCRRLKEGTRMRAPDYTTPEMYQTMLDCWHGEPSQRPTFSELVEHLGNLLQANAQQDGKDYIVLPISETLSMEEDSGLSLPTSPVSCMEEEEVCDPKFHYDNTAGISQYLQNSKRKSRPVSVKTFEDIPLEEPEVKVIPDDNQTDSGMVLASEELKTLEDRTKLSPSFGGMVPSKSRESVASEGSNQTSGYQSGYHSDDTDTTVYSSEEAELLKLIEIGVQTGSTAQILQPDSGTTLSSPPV
T1 sequence (P06239 whole entry, species assumed, the tested form may be a part): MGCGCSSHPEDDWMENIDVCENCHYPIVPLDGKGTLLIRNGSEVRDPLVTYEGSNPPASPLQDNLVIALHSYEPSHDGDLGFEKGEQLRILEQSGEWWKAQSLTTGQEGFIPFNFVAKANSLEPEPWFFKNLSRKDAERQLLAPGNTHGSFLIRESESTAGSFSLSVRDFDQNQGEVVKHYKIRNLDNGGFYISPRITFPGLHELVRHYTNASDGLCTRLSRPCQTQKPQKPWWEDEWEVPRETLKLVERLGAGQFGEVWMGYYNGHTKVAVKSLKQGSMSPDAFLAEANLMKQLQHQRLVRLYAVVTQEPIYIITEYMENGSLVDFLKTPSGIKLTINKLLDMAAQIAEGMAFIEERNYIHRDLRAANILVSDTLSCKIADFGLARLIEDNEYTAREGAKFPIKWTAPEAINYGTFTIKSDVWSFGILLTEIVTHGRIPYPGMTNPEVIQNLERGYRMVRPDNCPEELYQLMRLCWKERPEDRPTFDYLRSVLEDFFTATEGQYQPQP
T9 sequence (P08069 31-1367): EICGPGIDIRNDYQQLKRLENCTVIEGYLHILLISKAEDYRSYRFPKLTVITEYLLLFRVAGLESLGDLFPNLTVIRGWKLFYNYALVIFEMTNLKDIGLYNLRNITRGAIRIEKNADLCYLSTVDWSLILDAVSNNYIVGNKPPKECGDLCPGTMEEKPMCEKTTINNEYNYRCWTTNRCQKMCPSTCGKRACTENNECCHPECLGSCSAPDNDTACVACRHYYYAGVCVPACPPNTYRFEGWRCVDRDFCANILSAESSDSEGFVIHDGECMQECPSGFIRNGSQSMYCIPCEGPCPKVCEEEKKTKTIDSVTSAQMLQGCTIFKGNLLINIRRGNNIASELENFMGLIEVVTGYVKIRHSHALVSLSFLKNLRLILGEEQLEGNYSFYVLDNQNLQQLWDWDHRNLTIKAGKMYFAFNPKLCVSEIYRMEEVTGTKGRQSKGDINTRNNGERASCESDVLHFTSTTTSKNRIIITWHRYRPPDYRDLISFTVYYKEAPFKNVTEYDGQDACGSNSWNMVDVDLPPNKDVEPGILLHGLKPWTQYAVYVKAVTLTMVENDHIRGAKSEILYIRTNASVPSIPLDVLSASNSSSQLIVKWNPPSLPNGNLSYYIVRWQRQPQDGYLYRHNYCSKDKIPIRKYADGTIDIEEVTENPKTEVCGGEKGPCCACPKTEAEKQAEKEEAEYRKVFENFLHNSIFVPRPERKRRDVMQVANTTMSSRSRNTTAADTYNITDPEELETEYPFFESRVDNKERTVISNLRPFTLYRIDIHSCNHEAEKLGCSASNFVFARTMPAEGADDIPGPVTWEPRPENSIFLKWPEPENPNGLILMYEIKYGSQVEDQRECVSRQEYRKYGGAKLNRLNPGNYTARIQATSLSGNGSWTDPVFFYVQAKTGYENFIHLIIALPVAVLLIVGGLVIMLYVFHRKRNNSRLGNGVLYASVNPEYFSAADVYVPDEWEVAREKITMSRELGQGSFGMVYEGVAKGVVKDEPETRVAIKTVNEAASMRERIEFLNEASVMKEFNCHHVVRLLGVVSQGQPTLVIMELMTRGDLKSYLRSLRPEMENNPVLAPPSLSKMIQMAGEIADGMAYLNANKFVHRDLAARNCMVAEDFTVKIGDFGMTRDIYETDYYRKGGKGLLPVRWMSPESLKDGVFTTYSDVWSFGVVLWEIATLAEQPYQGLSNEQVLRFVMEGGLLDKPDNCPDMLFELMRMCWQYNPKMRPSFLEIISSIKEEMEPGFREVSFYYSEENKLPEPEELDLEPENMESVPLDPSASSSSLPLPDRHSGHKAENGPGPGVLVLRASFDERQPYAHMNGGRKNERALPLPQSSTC

Turning to `Nc1ncnc(Nc2ccc3c(cnn3Cc3ccccc3)c2)n1` [Compound 665], the IC50 was over 14.2 µM in assay [1]; over 14.2 µM in [2]; over 14.2 µM in assay [3]; 1.26 to 7.56 µM in assay [4]; 1.26 to 7.56 µM in assay [5]; over 14.2 µM in [6]. The IC50 in assay [7], in assay [8], in assay [9] and in assay [10] was over 14.2 µM throughout.
With `CN(c1cccc(Cl)c1)c1ncnc(N(C)c2cccc(Cl)c2)n1` [Compound 702], the IC50 was over 12.5 µM in assay [1]; over 12.5 µM in assay [2]; over 12.5 µM in assay [3]; 1.11 to 6.66 µM in assay [4]; over 12.5 µM in [5]; over 12.5 µM in assay [6]. Besides, the IC50 in assay [7], in [8], in [9] and in assay [10] was over 12.5 µM throughout.
Take `CN(c1cccc(Cl)c1)c1ncnc(NC2CCN(Cc3ccccc3)CC2)n1` [Compound 752]: the IC50 in assay [1] is over 11 µM; in [2], over 11 µM; in assay [3], over 11 µM; in assay [4] it was 0.978 to 5.87 µM; in assay [5] it was over 11 µM; in assay [6] it was over 11 µM. The IC50 in [7], in assay [8], in assay [9] and in assay [10] was over 11 µM throughout.
`COc1cc(Nc2ncnc(NC3CC3c3ccccc3)n2)cc(OC)c1OCCN1CCOCC1` (centres unmarked) [Compound 563]: the IC50 in assay [1] is under 0.812 µM; in assay [2], over 9.14 µM; in [3], over 9.14 µM; in assay [4] it was under 0.812 µM; in assay [5], 0.812 to 4.87 µM; in assay [6], 0.812 to 4.87 µM. The IC50 in assay [7] was 4.87 to 7.11 µM; in assay [8], over 9.14 µM; in assay [9], 0.812 to 4.87 µM; in [10], 0.812 to 4.87 µM.
As for `CCN(c1ccc(C)cc1)c1ncnc(Nc2cc(OC)c(OC)c(OC)c2)n1` [Compound 538], the IC50 in assay [1] was 1.01 to 6.07 µM; in assay [2], over 11.4 µM; in [3] it was 8.85 to 11.4 µM; in assay [4] it was under 1.01 µM; in assay [5], 1.01 to 6.07 µM; in [6], under 1.01 µM. The IC50 in assay [7] was under 1.01 µM; in [8] it was over 11.4 µM; in [9], under 1.01 µM; in assay [10], 1.01 to 6.07 µM.
For `c1ccc(Cn2ncc3cc(Nc4ncnc(Nc5cc(-c6ccccc6)[nH]n5)n4)ccc32)cc1` [Compound 737], the IC50 in assay [1] lay in the range of 5.22 to 7.62 µM; in [2], 7.62 to 9.79 µM; in [3], 0.87 to 5.22 µM; in assay [4], 0.87 to 5.22 µM; in [5], 0.87 to 5.22 µM; in assay [6], 0.87 to 5.22 µM. Moreover, the IC50 was 5.22 to 7.62 µM in [7], 7.62 to 9.79 µM in [8], 0.87 to 5.22 µM in assay [9] and 5.22 to 7.62 µM in assay [10].
For `COc1cc(Nc2ncnc(NCc3ccccc3)n2)cc(OC)c1OC` [Compound 630], the IC50 in assay [1] was 1.09 to 6.53 µM; in assay [2], over 12.2 µM; in [3] it was over 12.2 µM; in assay [4], under 1.09 µM; in [5], 6.53 to 9.53 µM; in [6] it was 6.53 to 9.53 µM. The IC50 in assay [7] was over 12.2 µM; in [8], over 12.2 µM; in assay [9] it was 9.53 to 12.2 µM; in assay [10] it was 1.09 to 6.53 µM.
Turning to `N#CCc1ccc(Nc2ncnc(Nc3ccc4c(cnn4Cc4ccccc4)c3)n2)cc1` [Compound 731], the IC50 in [1] was 0.925 to 5.55 µM; in assay [2], 5.55 to 8.09 µM; in [3] it was 0.925 to 5.55 µM; in assay [4], under 0.925 µM; in [5], under 0.925 µM; in [6], 0.925 to 5.55 µM. For the same compound, the IC50 was 0.925 to 5.55 µM in assay [7], 8.09 to 10.4 µM in [8], 0.925 to 5.55 µM in assay [9] and 0.925 to 5.55 µM in [10].
